Reference: US5106870A, “Methods for the use of thromboxane A2 antagonists” (National Research Development Corporation, priority 1990, dated 1992)

How the values were obtained:
[1] = tested on: U-46619-induced platelet aggregation; assay: Inhibition of U-46619-induced platelet aggregation in rat platelet rich plasma (in vitro); assay type: cell-based; conditions: rat PRP
Procedure: a. Inhibition of U-46619-induced platelet aggregation (rat)
Platelet rich plasma (PRP) was prepared from heparanized whole blood (5 units/ml) drawn from the abdominal aorta of ether anesthetized rats. PRP was prepared by centrifugation (Sorvall RC2B, DuPont, Wilmington, Del.) of the whole blood at 150×g for 10 min. Platelet poor plasma (PPP) was prepared by centrifugation at 1200×g for 20 min. Aliquots of PRP and PPP were used to standardize the aggregometer (Payton, Buffalo, N.Y., model 300B) with the recorder (Riken Denshi 2 channel recorder, Payton, model SP-H5P) for measurement of minimum and maximum light transmittance, respectively.
Platelet aggregation was measured as an increase in light transmittance. PRP (390 μl aliquot +5 μl compound vehicle) was preincubated for 1 min. at 37° C., with stirring at 900 rpm in the aggregometer. The vehicle control response was obtained by adding U-46619 (Cayman Chemical, Ann Arbor, Mich., 1-2 units/cuvette/10 μl) to the aliquot of PRP. Aggregation was monitored until maximum aggregation was achieved (approximately 3 min. following the addition of U-46619). Amount of aggregation was measured by grids on the strip chart.
Compounds were dissolved in either ethanol (ETOH) or Na2 CO3 (0.1M) and preincubated at the desired concentration in PRP for 1 min. at 37° C. with stirring. At the end of the preincubation, U-46619 was added and aggregation measured. Inhibition of aggregation by compound was calculated as percent inhibition of the control aggregation response to U-46619. Dose response curves were generated and IC50 's calculated by linear regression.

[2] = tested on: U-46619 induced platelet aggregation; assay: Ex vivo inhibition of U-46619 induced platelet aggregation, intragastric; assay type: in vivo; conditions: rat
Procedure: (§1) II. Ex vivo--(rat) Inhibition of U-46619 induced platelet aggregation
Compounds dissolved in Na Carbonate were administered to conscious rats with an I.G. tube. Fifteen minutes post administration (time previously determined to show maximum effect), rats were anesthetized with ether and blood was sampled from the abdominal aorta, PRP was prepared as described in II a.

[3] = tested on: U-46619 induced platelet aggregation; assay: Ex vivo inhibition of U-46619 induced platelet aggregation, intravenous; assay type: in vivo; conditions: rat
Procedure: as §1
Rats were anesthetized with ether and the jugular vein exposed. Compound dissolved in 0.1M Na Carbonate was injected as a bolus into the jugular vein. Blood (5 ml, heparanized) was sampled 30 sec. later from the abdominal aorta. PRP was prepared by quick centrifugation (Eppendorf, model 5415 at 12,000 rpm for 5 sec. PPP was prepared by centrifugation for 2 min. PRP was diluted 1:1 with PPP from similarly treated animals. Aggregation was monitored for 5 min. and inhibition was determined as previously described.

human washed platelets = assay: Analysis of partial agonism (shape change/aggregation) in human washed platelets; assay type: cell-based; conditions: 5 and 10 min incubation
Procedure: b. Analysis of partial agonism with SC-46985 (human washed platelets)
Sixty ml of blood were drawn into 1/10 volume of CCD (100 mM Na Citrate and 136 mM glucose, pH 6.5 with HCl) and PRP prepared as described above. PRP was placed on ice for 15 min. One half of the volume of CCD was added and recentrifuged. The platelet pellet was gently resuspended in 1/2 the original volume of PRP in a 0° C. modified Tangen-Hepes-BSA buffer (145 mM NaCl, 5 mM KCl, 0.05 mM CaCl2, 0.1 mM MgCl2, 11 mM glucose, 15 mM Hepes, 1 mg/ml bovine serum albumin, pH adjusted to 7.4 with NaOH). The resuspended platelets were incubated undisturbed at 37° C. for 30 min. After incubation a platelet count was determined and adjusted to 3×10^8 cells/ml with the Tangen-Hepes-BSA buffer.
425 μl of the washed human platelet suspension was incubated in the aggregometer in the presence of 16 mM CaCl2 (50 μl) and SC-46985 for 5 and 10 min. […] (In a study similar to (a) above, aliquots of human washed platelets were incubated with various concentrations of SC-46985 and U-46619 to determine dose-related inhibition of aggregation).

CC(=NNC(=S)Nc1ccccc1)[C@@H]1[C@H]2CC[C@H](C2)[C@H]1C/C=C\CCCC(=O)O (relative stereo) [SC-44161, (±)7-[3α[[(Phenylamino)thioxomethyl]hydrazono]ethyl]1α,4α-bicyclo[2.2.1]hept-2β-yl]-5Z-heptenoic acid]
more potent in aqueous solution than when dissolved in ethanol ([1]; aqueous (Na Carbonate) vs ethanol): 5-10 fold

CC(=NNC(=S)Nc1ccccc1)[C@@H]1[C@H]2CC[C@H](C2)[C@H]1C/C=C\CCCC(=O)O [SC-46984, 7-[3α-[1-[[(Phenylamino)thioxomethyl]hydrazono]ethyl]-1R,1α,4α-bicyclo-[2.2.1]hept-2β-yl]-5Z-heptenoic acid]
more potent than SC-44161 (I.G. ED50) [2]: approximately 2.8 times | more potent than SC-44161 ([1]; in vitro): approximately 100 times | more potent than SC-44161 (ED50) [3]: approximately 3.5 times

CC(=NNC(=S)Nc1ccccc1)[C@H]1[C@@H]2CC[C@@H](C2)[C@@H]1C/C=C\CCCC(=O)O [SC-46985]
partial agonist activity (shape change or aggregation) (human washed platelets): no evidence of shape change or aggregation | less potent than SC-44161 (ED50) [3]: approximately 1.5 times

CC(=NNC(=S)Nc1ccccc1)[C@@H]1[C@H]2CC[C@H](C2)[C@H]1C/C=C/CCCC(=O)O [SC-47721, 7-[3α-[1-[[(Phenylamino)thioxomethyl]hydrazono]ethyl]-1R,1α,4α-bicyclo-[2.2.1]hept-2β-yl]-5E-heptenoic acid]
inhibition of U-46619 induced aggregation ([2]; 1 mg/kg, 15 min post administration): 37.5% | more potent than SC-44161 ([1]; in vitro): 10-50 times | potency compared with SC-46984 ([1]; in vitro): less potent than SC-46984
